Results: patent US8377949B2, “Quinazolinedione chymase inhibitors” (Boehringer Ingelheim International GmbH, priority 2007, dated 2013)
Where “and” joins values, the source holds several entries; their conditions need not be identical. Equal entries are not always repeated.

Molecular target: T1, Chymase (Homo sapiens, UniProt P23946)
T1 sequence (P23946 22-247): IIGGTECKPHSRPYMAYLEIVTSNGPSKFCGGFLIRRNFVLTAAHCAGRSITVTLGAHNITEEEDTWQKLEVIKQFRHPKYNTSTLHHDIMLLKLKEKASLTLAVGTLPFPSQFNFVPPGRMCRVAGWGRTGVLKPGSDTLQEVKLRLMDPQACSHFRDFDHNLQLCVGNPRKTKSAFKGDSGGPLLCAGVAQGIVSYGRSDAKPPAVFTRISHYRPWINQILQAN
Test: In vitro Assay for Inhibition of Chymase
Format: biochemical
Settings: 500 pM chymase, 100 nM rhodamine 110 peptide substrate, 1 hour at 28° C., fluorescence
Procedure: In vitro Assay for Inhibition of Chymase
Chymase assays were performed in a total volume of 15 μL in Corning black opaque 384-well microtiter plates with a non-binding surface (Coming, N.Y.). The assay buffer was comprised of 20 mM Tris HCl pH 8.0, 50 mM NaCl, 0.01% CHAPS. The test compounds were serially diluted 3-fold with neat DMSO in a 96-well polypropylene plate from a 10 mM DMSO stock to give the 10 point dose response curve. 3 μL of the resulting DMSO solution were transferred to a 384-well polypropylene plate in duplicate, and 37 μL of assay buffer was added. Chymase was added to the assay plate in 3 uL of assay buffer followed by 2 uL of the appropriate compound dilution using a PlateMate Plus (Matrix Technologies Corp., Hudson, N.H.). The reaction was initiated by the addition of 10 uL rhodamine 110, bis-(succinoyl-L-alanyl-L-alanyl-L-prolyl-L-phenylalanylamide) (American Peptides, Sunnyvale, Calif.) in assay buffer containing 150 μM tris(2-carboxyethyl)phosphine (TCEP, Pierce Chemical, Rockford, Ill.) using a Multidrop (Thermo Electron Corp., Waltham, Mass.). Final assay concentrations were 500 pM chymase, 100 nM substrate, 100 μM TCEP, and 1% DMSO. The plates were incubated at 28° C. and 80% humidity for 1 hour, at which time the fluorescence was read on a Viewlux 1430 Microplate Imager (Perkin Elmer Life Sciences, Boston, Mass.) with 485 nm excitation, 530 nm emission, and a fluorescein dichroic mirror. The percentage of control values were calculated relative to assay blanks containing complete reaction minus chymase and a 100% control containing assay buffer with 1% DMSO in place of compound. IC50 values were obtained by fitting the data using XLFit4 (IDBS Software).

| SMILES | IC50 |
| --- | --- |
| Cc1cccc2c1c(Cn1c(=O)n(CC(CC(=O)O)c3ccccc3)c(=O)c3ccccc31)cn2C (stereo not shown) [4-[1-(1,4-Dimethyl-1H-indol-3-ylmethyl)-2,4-dioxo-1,4-dihydro-2H-quinazolin-3-yl]-3-phenyl-butyric acid] | 3 nM |
| Cc1cc(C)c2c(Cn3c(=O)n([C@@H](C(=O)O)c4ccccc4)c(=O)c4ccccc43)nsc2c1 [(R)-[1-(4,6-Dimethyl-1,2-benzisothiazol-3-ylmethyl)-2,4-dioxo-1,4-dihydro-2H-quinazolin-3-yl]-phenyl-acetic acid] | 1.8 nM |
| CCCCC(C(=O)O)n1c(=O)c2ccccc2n(Cc2cn(C)c3cccc(C)c23)c1=O (stereo not shown) [2-[1-(1,4-Dimethyl-1H-indol-3-ylmethyl)-2,4-dioxo-1,4-dihydro-2H-quinazolin-3-yl]-hexanoic acid] | 3 nM |
| CCCC[C@@H](C(=O)O)n1c(=O)c2ccccc2n(Cc2cn(C)c3cccc(C)c23)c1=O [(S)-2-[1-(1,4-Dimethyl-1H-indol-3-ylmethyl)-2,4-dioxo-1,4-dihydro-2H-quinazolin-3-yl]-hexanoic acid] | 2 nM |
| Cc1cc(C)c2c(Cn3c(=O)n([C@H](C(=O)O)c4ccccc4)c(=O)c4ccccc43)nsc2c1 [(S)-[1-(4,6-Dimethyl-1,2-benzisothiazol-3-ylmethyl)-2,4-dioxo-1,4-dihydro-2H-quinazolin-3-yl]-phenyl-acetic acid] | 1 nM |
| Cc1cc(C)c2c(Cn3c(=O)n([C@H](C(=O)O)c4ccc(Cl)cc4)c(=O)c4ccccc43)nsc2c1 [(S)-(4-Chloro-phenyl)-[1-(4,6-dimethyl-1,2-benzisothiazol-3-ylmethyl)-2,4-dioxo-1,4-dihydro-2H-quinazolin-3-yl]-acetic acid] | 0.92 nM |
| CCCC[C@@H](C(=O)O)n1c(=O)c2ccc(OC)cc2n(Cc2cn(C)c3cccc(C)c23)c1=O [(S)-2-[1-(1,4-Dimethyl-1H-indol-3-ylmethyl)-7-methoxy-2,4-dioxo-1,4-dihydro-2H-quinazolin-3-yl]-hexanoic acid] | 4.9 nM |
| CC[C@@H](CC(=O)O)n1c(=O)c2ccccc2n(Cc2nsc3cc(C)cc(C)c23)c1=O [(S)-3-[1-(4,6-Dimethyl-benzo[d]isothiazol-3-ylmethyl)-2,4-dioxo-1,4-dihydro-2H-quinazolin-3-yl]-pentanoic acid] | 3.7 nM |
| CCCC[C@@H](C(=O)O)n1c(=O)c2cc(OC)ccc2n(Cc2cn(C)c3cccc(C)c23)c1=O [(S)-2-[1-(1,4-Dimethyl-1H-indol-3-ylmethyl)-6-methoxy-2,4-dioxo-1,4-dihydro-2H-quinazolin-3-yl]-hexanoic acid] | 2.6 nM |
| CCC[C@H](C(=O)O)n1c(=O)c2ccccc2n(Cc2cn(C)c3cc(C)cc(C)c23)c1=O [(R)-2-[2,4-Dioxo-1-(1,4,6-trimethyl-1H-indol-3-ylmethyl)-1,4-dihydro-2H-quinazolin-3-yl]-pentanoic acid] | 0.27 nM |
| CCCC[C@@H](C(=O)O)n1c(=O)c2cc(OC)ccc2n(Cc2nsc3cc(C)cc(C)c23)c1=O [(S)-2-[1-(4,6-Dimethyl-1,2-benzisothiazol-3-ylmethyl)-6-methoxy-2,4-dioxo-1,4-dihydro-2H-quinazolin-3-yl]-hexanoic acid] | 1.8 nM |
| Cc1cccc2c1c(Cn1c(=O)n([C@H](CC(=O)O)c3ccccc3)c(=O)c3ccccc31)cn2C [(R)-3-[1-(1,4-Dimethyl-1H-indol-3-ylmethyl)-2,4-dioxo-1,4-dihydro-2H-quinazolin-3-yl]-3-phenyl-propionic acid] | 1 nM |
| Cc1cc(C)c2c(Cn3c(=O)n(C4(CC(=O)O)CCCCC4)c(=O)c4ccccc43)nsc2c1 [{1-[1-(4,6-Dimethyl-1,2-benzisothiazol-3-ylmethyl)-2,4-dioxo-1,4-dihydro-2H-quinazolin-3-yl]-cyclohexyl}-acetic acid] | 4 nM |
| CCCCC(CC(=O)O)n1c(=O)c2ccccc2n(Cc2cn(C)c3cccc(C)c23)c1=O (stereo not shown) [3-[1-(1,4-Dimethyl-1H-indol-3-ylmethyl)-2,4-dioxo-1,4-dihydro-2H-quinazolin-3-yl]-heptanoic acid] | 4 nM |
| CCC(CC(=O)O)n1c(=O)c2ccccc2n(Cc2nsc3cc(C)cc(C)c23)c1=O (stereo not shown) [3-[1-(4,6-Dimethyl-1,2-benzisothiazol-3-ylmethyl)-2,4-dioxo-1,4-dihydro-2H-quinazolin-3-yl]-pentanoic acid] | 2 nM |
| Cc1cccc2c1c(Cn1c(=O)n([C@@H](C(=O)O)c3ccccc3)c(=O)c3ccccc31)cn2C [(R)-[1-(1,4-Dimethyl-1H-indol-3-ylmethyl)-2,4-dioxo-1,4-dihydro-2H-quinazolin-3-yl]-phenyl-acetic acid] | 1 nM |
| CCCC[C@H](C(=O)O)n1c(=O)c2cc(OC)ccc2n(Cc2cn(C)c3cccc(C)c23)c1=O [(R)-2-[1-(1,4-Dimethyl-1H-indol-3-ylmethyl)-6-methoxy-2,4-dioxo-1,4-dihydro-2H-quinazolin-3-yl]-hexanoic acid] | 1.6 nM |
| Cc1cccc2c1c(Cn1c(=O)n([C@H](C(=O)O)c3ccccc3)c(=O)c3ccccc31)cn2C [(S)-[1-(1,4-Dimethyl-1H-indol-3-ylmethyl)-2,4-dioxo-1,4-dihydro-2H-quinazolin-3-yl]-phenyl-acetic acid] | 2 nM |
| CCCC[C@H](C(=O)O)n1c(=O)c2ccccc2n(Cc2nsc3cc(C)cc(C)c23)c1=O [(R)-2-[1-(4,6-Dimethyl-1,2-benzisothiazol-3-ylmethyl)-2,4-dioxo-1,4-dihydro-2H-quinazolin-3-yl]-hexanoic acid] | 3 nM |

Continued, values first:

| IC50 | SMILES |
| --- | --- |
| 4 nM | CCC(C(=O)O)n1c(=O)c2ccccc2n(Cc2cn(C)c3cccc(C)c23)c1=O (stereo not shown) [2-[1-(1,4-Dimethyl-1H-indol-3-ylmethyl)-2,4-dioxo-1,4-dihydro-2H-quinazolin-3-yl]-butyric acid] |
| 1.7 nM | CC[C@@H](C(=O)O)n1c(=O)c2ccccc2n(Cc2cn(C)c3cccc(C)c23)c1=O [(S)-2-[1-(1,4-Dimethyl-1H-indol-3-ylmethyl)-2,4-dioxo-1,4-dihydro-2H-quinazolin-3-yl]-butyric acid] |
| 3.9 nM | CC[C@H](CC(=O)O)n1c(=O)c2ccccc2n(Cc2cn(C)c3cccc(C)c23)c1=O [(R)-3-[1-(1,4-Dimethyl-1H-indol-3-ylmethyl)-2,4-dioxo-1,4-dihydro-2H-quinazolin-3-yl]-pentanoic acid] |
| 3 nM | Cc1cccc2c1c(Cn1c(=O)n(C3(CC(=O)O)CCCCC3)c(=O)c3ccccc31)cn2C [{1-[1-(1,4-Dimethyl-1H-indol-3-ylmethyl)-2,4-dioxo-1,4-dihydro-2H-quinazolin-3-yl]-cyclohexyl}-acetic acid] |
| 4 nM | CCCC(C(=O)O)n1c(=O)c2ccccc2n(Cc2cn(C)c3cccc(C)c23)c1=O (stereo not shown) [2-[1-(1,4-Dimethyl-1H-indol-3-ylmethyl)-2,4-dioxo-1,4-dihydro-2H-quinazolin-3-yl]-pentanoic acid] |
| 1.9 nM | Cc1cccc2c1c(Cn1c(=O)n([C@H](C)C(=O)O)c(=O)c3ccccc31)cn2C [(R)-2-[1-(1,4-Dimethyl-1H-indol-3-ylmethyl)-2,4-dioxo-1,4-dihydro-2H-quinazolin-3-yl]-propionic acid] |
| 1.4 nM | CC[C@H](C(=O)O)n1c(=O)c2ccccc2n(Cc2cn(C)c3cccc(C)c23)c1=O [(R)-2-[1-(1,4-Dimethyl-1H-indol-3-ylmethyl)-2,4-dioxo-1,4-dihydro-2H-quinazolin-3-yl]-butyric acid] |
| 3.2 nM | CC[C@@H](CC(=O)O)n1c(=O)c2ccccc2n(Cc2cn(C)c3cccc(C)c23)c1=O [(S)-3-[1-(1,4-Dimethyl-1H-indol-3-ylmethyl)-2,4-dioxo-1,4-dihydro-2H-quinazolin-3-yl]-pentanoic acid] |
| 3 nM | Cc1cccc2c1c(Cn1c(=O)n(CC3(C(=O)O)CCCCC3)c(=O)c3ccccc31)cn2C [1-[1-(1,4-Dimethyl-1H-indol-3-ylmethyl)-2,4-dioxo-1,4-dihydro-2H-quinazolin-3-ylmethyl]-cyclohexanecarboxylic acid] |
| 3 nM and 0.8 nM | CCCC[C@H](C(=O)O)n1c(=O)c2ccccc2n(Cc2cn(C)c3cccc(C)c23)c1=O [(R)-2-[1-(1,4-Dimethyl-1H-indol-3-ylmethyl)-2,4-dioxo-1,4-dihydro-2H-quinazolin-3-yl]-hexanoic acid] |
| 3 nM | Cc1cccc2c1c(Cn1c(=O)n(CC3(CC(=O)O)CCCCC3)c(=O)c3ccccc31)cn2C [{1-[1-(1,4-Dimethyl-1H-indol-3-ylmethyl)-2,4-dioxo-1,4-dihydro-2H-quinazolin-3-ylmethyl]-cyclohexyl}-acetic acid] |
| 1.5 nM | CCC[C@@H](C(=O)O)n1c(=O)c2ccccc2n(Cc2cn(C)c3cccc(C)c23)c1=O [(S)-2-[1-(1,4-Dimethyl-1H-indol-3-ylmethyl)-2,4-dioxo-1,4-dihydro-2H-quinazolin-3-yl]-pentanoic acid] |
